Assay results taken from patent US20240000878A1 (priority 2022, published 2024).
≈ marks a conversion by molar mass, not a printed value. Where “and” joins values, the source holds several entries; their conditions need not be identical. Identical values can stand only once. Counter-ions that a name gives are not always drawn.

Tests used:
Assay in all cases: microbe, parasite or virus in culture
Type in all cases: cell-based
[1] = tested on: Respiratory Syncytial Virus (RSV) strain A2; conditions: for LRV (log reduction value): average reduction of virus vs average virus control; for antiviral activity against RSV (in words): summary of Table 2
[2] = tested on: SARS-CoV-2 strain USA/PHC658/2021 (B.1.617.2; delta); conditions: for LRV (log reduction value): average reduction of virus vs average virus control
[3] = tested on: Influenza A/CA/07/09 (H1N1); conditions: for LRV (log reduction value): average reduction of virus vs average virus control

SMILES: OC[C@@H](O)[C@H](O)[C@@H](O)CO [Xylitol]
- LRV (log reduction value) ([1]; concentration 5 %, day 5): 2.65
- antiviral activity against RSV (in words) [1]: antiviral activity
- LRV (log reduction value) ([2]; concentration 5 %, day 6): 3.84
- Log10 CCID50 virus per 0.2 mL ([3]; concentration 5 %): 6.00
- LRV (log reduction value) ([3]; concentration 5 %, day 3): 1.27

SMILES: OC[C@@H](O)[C@@H](O)[C@H](O)[C@@H](O)CO [Sorbitol]
- Log10 CCID50 virus per 0.2 mL ([1]; concentration 5 %): 2.00
- LRV (log reduction value) ([1]; concentration 5 %, day 5): 2.49
- antiviral activity against RSV (in words) [1]: antiviral activity
- Log10 CCID50 virus per 0.2 mL ([2]; concentration 5 %): 1.50 and 1.67
- LRV (log reduction value) ([2]; concentration 5 %, day 6): 3.5
- LRV (log reduction value) ([3]; concentration 5 %, day 3): 1.47

SMILES: OC[C@@H](O)[C@@H](O)CO [Erythritol]
- LRV (log reduction value) ([1]; concentration 5 %, day 5): 1.84
- LRV (log reduction value) ([2]; concentration 5 %, day 6): 3.29
- LRV (log reduction value) ([3]; concentration 5 %, day 3): 3.17
- antiviral activity against H1N1 (in words) ([3]; summary of Table 1): showed antiviral activity

SMILES: CCC(CC)COC(=O)[C@H](C)N[P@](=O)(OC[C@H]1O[C@@](C#N)(c2ccc3c(N)ncnn23)[C@H](O)[C@@H]1O)Oc1ccccc1 [Remdesivir]
- EC90 ([2]; Severe acute respiratory syndrome coronavirus 2, 144 h): 0.12 µg/mL (≈ 0.199 µM)
- Log10 CCID50 virus per 0.2 mL ([2]; concentration 5 μg/ml): 0.67
- SI ([2]; with the EC90, day 6): SI >42

SMILES: NC(=O)c1ncn([C@@H]2O[C@H](CO)[C@@H](O)[C@H]2O)n1 [Ribavirin, reference compound]
- Log10 CCID50 virus per 0.2 mL ([1]; concentration 100 μg/ml): 1.30
- EC90 ([1]; human respiratory syncytial virus, 120 h, 90% effective concentration (reduce virus yield by 1 log10), regression analysis, day 5): 4.6 µg/mL (≈ 18.8 µM)
- SI ([1]; with the EC90, day 5): SI >22
- EC90 ([3]; Influenza A virus, H1N1, 72 h): 3.1 µg/mL (≈ 12.7 µM)
- Log10 CCID50 virus per 0.2 mL ([3]; concentration 100 μg/ml): 0.67
- SI ([3]; with the EC90, day 3): SI >32

SMILES: CN(C)CCC(c1ccc(Cl)cc1)c1ccccn1 (centres unmarked) [Chlorpheniramine Maleate, reference compound]
- Log10 CCID50 virus per 0.2 mL ([1]; concentration 1 %): 1.50
- LRV (log reduction value) ([1]; concentration 1 %, day 5): 2.99
- Log10 CCID50 virus per 0.2 mL ([2]; concentration 1 %): 2.30 and 2.50
- LRV (log reduction value) ([2]; concentration 1 %, day 6): 2.69
- LRV (log reduction value) ([3]; concentration 1 %, day 3): 6.02
